Data taken from ChEMBL document CHEMBL1201862, “PubChem BioAssay data set” (2004).
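Cultured in 96-well plates, cells were exposed to test compound for 48 hours across five concentrations. GI50 = concentration required for 50% inhibition of growth.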 Calls of active or inactive are those of the source. No stated cut-off is given here; in the data, active = GI50 up to about 1.1 µM and inactive = higher.

Assays:
Test in all cases: growth of human tumour cells (NCI), 48 h
[1] = test system: 786-0
[2] = test system: A549
[3] = test system: CCRF-CEM
[4] = test system: COLO 205
[5] = test system: HOP-92
[6] = test system: K562
[7] = test system: KM12
[8] = test system: LOX IMVI
[9] = test system: NCI-H460
[10] = test system: OVCAR-5
[11] = test system: OVCAR-8
[12] = test system: RXF 393
[13] = test system: SF-268
[14] = test system: SF-539
[15] = test system: SK-MEL-2
[16] = test system: SK-OV-3
[17] = test system: SN12C
[18] = test system: SNB-19
[19] = test system: TK-10
[20] = test system: UO-31

SMILES	GI50 [1]	GI50 [2]	GI50 [3]	GI50 [4]	GI50 [5]	GI50 [6]	GI50 [7]	GI50 [8]	GI50 [9]	GI50 [10]	GI50 [11]	GI50 [12]	GI50 [13]	GI50 [14]	GI50 [15]	GI50 [16]	GI50 [17]	GI50 [18]	GI50 [19]	GI50 [20]
O=C(c1ccccc1)n1cc(/C=C/[N+](=O)[O-])c2ccccc21	20.2 µM (inactive)	85.1 µM (inactive)	13.4 µM (inactive)	24.7 µM (inactive)	23.8 µM (inactive)	19.7 µM (inactive)	18.5 µM (inactive)	15.2 µM (inactive)	21.9 µM (inactive)	> 100 µM (inactive)	35.6 µM (inactive)	20.5 µM (inactive)	23.1 µM (inactive)	21.4 µM (inactive)	19.9 µM (inactive)	> 100 µM (inactive)	39.2 µM (inactive)	30.7 µM (inactive)	> 100 µM (inactive)	20.1 µM (inactive)
CC(C1=CC=C2[C@@H]3CCC4CC(N(C)C)CC[C@]4(C)C3CC[C@]12C)N(C)C=O (stereo not given in full)	> 100 µM (inactive)	> 100 µM (inactive)	> 100 µM (inactive)	> 100 µM (inactive)	> 100 µM (inactive)	36.1 µM (inactive)	> 100 µM (inactive)	25.7 µM (inactive)	> 10 µM (inactive)	> 100 µM (inactive)	> 100 µM (inactive)	> 100 µM (inactive)	> 100 µM (inactive)	> 100 µM (inactive)	> 100 µM (inactive)	> 100 µM (inactive)	> 100 µM (inactive)	> 100 µM (inactive)	> 100 µM (inactive)	> 100 µM (inactive)
C=CCC1(O)c2ccccc2C(=O)c2c(O)ccc(O)c21 (stereo not given)	11.7 µM (inactive)	7.55 µM (inactive)	11.6 µM (inactive)	13.3 µM (inactive)	12.9 µM (inactive)	11.1 µM (inactive)	3.94 µM (inactive)	9.66 µM (inactive)	3.52 µM (inactive)	17.2 µM (inactive)	12.4 µM (inactive)	4.12 µM (inactive)	10.5 µM (inactive)	7.93 µM (inactive)	2.68 µM (inactive)	10.4 µM (inactive)	11.6 µM (inactive)	6.5 µM (inactive)	14.6 µM (inactive)	16.8 µM (inactive)
CC1=CCC[C@@H]2[C@@](C)(Cc3cc(O)ccc3O)[C@H](C)CC[C@@]12C	6.49 µM (inactive)	4.94 µM (inactive)	2.1 µM (inactive)	18.2 µM (inactive)	4.84 µM (inactive)	3.48 µM (inactive)	4.54 µM (inactive)	4.99 µM (inactive)	5.83 µM (inactive)	13.4 µM (inactive)	5.45 µM (inactive)	6.44 µM (inactive)	7.43 µM (inactive)	6.18 µM (inactive)	14.5 µM (inactive)	12.6 µM (inactive)	9.2 µM (inactive)	7.57 µM (inactive)	9.08 µM (inactive)	5.33 µM (inactive)
CON(C)C(=O)CNC(=O)OCC1c2ccccc2-c2ccccc21	> 100 µM (inactive)	> 100 µM (inactive)	44.1 µM (inactive)	> 100 µM (inactive)	93.1 µM (inactive)	40.7 µM (inactive)	> 100 µM (inactive)	18.8 µM (inactive)	> 100 µM (inactive)	> 100 µM (inactive)	> 100 µM (inactive)	> 100 µM (inactive)	> 100 µM (inactive)	> 100 µM (inactive)	> 100 µM (inactive)	> 100 µM (inactive)	> 100 µM (inactive)	> 100 µM (inactive)	> 100 µM (inactive)	63.2 µM (inactive)
C=C1C(=O)C23CC1C[C@H](OC(C)=O)[C@H]2C1(C)C(OC(C)=O)C[C@H](O)C(C)(C)[C@H]1C(=O)[C@@H]3OC(C)=O (stereo not given in full)	3.28 µM (inactive)	17.9 µM (inactive)	1.41 µM (inactive)	2.17 µM (inactive)	0.248 µM (active)	1.95 µM (inactive)	10.9 µM (inactive)	3.4 µM (inactive)	17.5 µM (inactive)	9.51 µM (inactive)	2.95 µM (inactive)	3.09 µM (inactive)	9.08 µM (inactive)	2.69 µM (inactive)	12.3 µM (inactive)	18.1 µM (inactive)	4.76 µM (inactive)	18.5 µM (inactive)	2.28 µM (inactive)	4.93 µM (inactive)
